Test results as given in patent publication US20240016765A1, “Use of an alkaloid compound in the preparation of products for the prevention and/or treatment of cardiac damage” (NORTHWEST INSTITUTE OF PLATEAU BIOLOGY, CHINESE ACADEMY OF …, priority 2021, published 2024).

Key:
Assay type in all cases: cell-based
H9c2 cardiomyocytes [1] = test: Toxicity of alkaloid compound I on H9c2 cardiomyocytes (MTT colorimetric method); conditions: 24 h incubation, FIG. 1
Protocol: H9c2 cells are incubated with different concentrations (0.1 μM, 1 μM, 5 μM, 10 μM, 20 μM, 40 μM, 80 μM, 160 μM) of alkaloid compounds I for 24 h, and then the toxic effects of the alkaloid compounds on cardiomyocytes are evaluated by MTT colorimetric method.

H9c2 cardiomyocytes [2] = test: Effect on DOX-induced H9c2 cardiomyocyte toxicity (MTT colorimetric assay); conditions: 1 h pre-incubation, then 2.5 μM DOX 24 h, FIG. 2
Protocol: (1) H9c2 cells are pre-incubated with alkaloid compound I for lh, then add 2.5 μM doxorubicin (DOX), incubate for 24 h. MTT colorimetric assay is used to determine the apoptotic activity of alkaloid compound I on DOX-induced cardiomyocytes and determine the optimal range of the dose concentration.

Cleaved-Caspase-3 = test: Western blot of Cleaved-Caspase-3 in DOX-treated H9c2 cardiomyocytes; conditions: FIG. 3
Protocol: (§1) (2) Incubate H9c2 cells with alkaloid compound I for 1 hour, then add […] DOX and incubate for 24 hours; extract the proteins, proceed with hydrolysis and collect the resulting solution, centrifuge at 12000 rpm for 15 minutes, collect the supernatant and discard the precipitate, store under −80° C. until analysis. Perform SDS-PAGE electrophoresis (Stepl voltage set at 80V for 30 minutes, followed by Step2 voltage set at 120V for 180 minutes), using 5% concentrated gel. Carry out membrane transfer using a PVDF membrane, with a current of 80 mA for 30 minutes. Then, conduct the closure and hybridization by using 5% skim milk powder for 1 hour of closure, followed by overnight incubation with primary antibody, and 1-2 hours of incubation with secondary antibody at room temperature with gentle shaking. Finally, visualize the proteins by using ECL reagent and observe the expression of Caspase-3 and p-JNK/JNK proteins using a gel imaging system.

p-JNK = test: Western blot of p-JNK/JNK in DOX-treated H9c2 cardiomyocytes; conditions: FIG. 4; for p-JNK expression level compared with DOX model group: 1 h incubation, then DOX 24 h
Protocol: as §1

| SMILES | toxic effect on H9c2 cell viability compared with Con group (H9c2 cardiomyocytes [1]; 80 μM) | toxic effect on H9c2 cell viability compared with Con group (H9c2 cardiomyocytes [1]; 0.1-40 μM) | difference from DOX model group in DOX-induced cardiomyocyte toxicity (H9c2 cardiomyocytes [2]; 5-80 μM) | inhibition of DOX-induced cardiomyocyte toxicity compared with DOX model group (H9c2 cardiomyocytes [2]; different concentration ranges) | Cleaved-Caspase-3 expression level compared with DOX model group (Cleaved-Caspase-3; 10 μM, 20 μM and 40 μM, 1 h incubation, then DOX 24 h) | p-JNK expression level compared with DOX model group (p-JNK; high-dose 40 μM) | p-JNK expression level compared with DOX model group (p-JNK; low-dose 10 μM) | p-JNK expression level compared with DOX model group (p-JNK; moderate-dose 20 μM) | Cleaved-Caspase-3 expression level compared with Con group (Cleaved-Caspase-3; DOX model group, DOX 24 h) | p-JNK expression level compared with Con group (p-JNK; DOX model group, DOX 24 h) |
| --- | --- | --- | --- | --- | --- | --- | --- | --- | --- | --- |
| O=C(/C=C/c1ccc(O)cc1)NCCCCO [compound I, 4-[(E)-p-coumaroylamino]butan-1-ol] | significantly different compared with the Con group | not statistically different from the Con group | a significant difference or a highly significant difference | all exhibit inhibition of DOX-induced cardiomyocyte toxicity | able to inhibit the elevation of Cleaved-Caspase-3 level induced by DOX to varying degrees | a highly significant difference | no statistically significant difference | a highly significant difference | – | – |
| COc1cccc2c1C(=O)c1c(O)c3c(c(O)c1C2=O)C[C@@](O)(C(=O)CO)C[C@@H]3O[C@H]1C[C@H](N)[C@H](O)[C@H](C)O1 [DOX, doxorubicin, reference compound] | – | – | – | – | – | – | – | – | significantly higher | significantly higher |
